Measurements: patent EP0641797A1, “Cephem derivatives and antimicrobial agents containing the same” (KATAYAMA SEIYAKUSYO CO. Ltd., priority 1993, dated 1995)
In brackets after ≈: the same amount, converted by molar mass.

Legend:
Assay in all cases: MIC on standard strains, standard method of Japan Society of Chemotherapy
Type in all cases: cell-based
[1] = tested on: M. luteus ATCC 9341; conditions: Micrococcus luteus, ATCC9341
Protocol: (§1) Antimicrobial activity of the compounds of the present invention were measured using CTM (cefotiam) and FMOX (flomoxef) as control drugs in accordance with the standard method of Japan Society of Chemotherapy. Of the 25 standard strains used in this test, Staphylococcus aureus 167 and Staphylococcus aureus 195 belong to MRSA.
(§2) In these tables, drugs tested are shown by the corresponding examples in which they were synthesized.

[2] = tested on: A. calcoaceticos T59; conditions: read-out: MIC
Protocol: as §1, §2

[3] = tested on: P. aeruginosa NCTC 10490; conditions: Pseudomonas aeruginosa, NCTC10490, P. aeruginosa NCTC 10490; read-out: MIC
Protocol: as §1, §2

[4] = tested on: B. subtilis ATCC 6633; conditions: Bacillus subtilis, ATCC6633, B. subtilis ATCC 6633; read-out: MIC
Protocol: as §1, §2

[5] = tested on: S. aureus 195; conditions: Staphylococcus aureus; S. aureus 195 (MRSA)
Protocol: as §1, §2

[6] = tested on: E. cloacae ATCC 13407; conditions: Enterobacter cloacae, ATCC13407, E. cloacae ATCC 13407; read-out: MIC
Protocol: as §1, §2

[7] = tested on: S. aureus Smith; conditions: Staphylococcus aureus, read-out: MIC
Protocol: as §1, §2

[8] = tested on: C. freundii ATCC 8090; conditions: Citrobacter freundii, ATCC8090, C. freundii ATCC 8090; read-out: MIC
Protocol: as §1, §2

[9] = tested on: P. mirabilis IFO 3849; conditions: Proteus mirabilis, IFO3849, P. mirabilis IFO 3849; read-out: MIC
Protocol: as §1, §2

[10] = tested on: M. morganii IFO 3848; conditions: Morganella morganii, IFO3848
Protocol: as §1, §2

[11] = tested on: S. aureus 167; conditions: Staphylococcus aureus; S. aureus 167 (MRSA)
Protocol: as §1, §2

[12] = tested on: K. pneuminiae No. 42
Protocol: as §1, §2

[13] = tested on: E. cloacae Nek39; conditions: Enterobacter cloacae, NEK39, E. cloacae Nek39; read-out: MIC
Protocol: as §1, §2

[14] = tested on: S. marcescens No. 16-2; conditions: Serratia marcescens, NO.162
Protocol: as §1, §2

[15] = tested on: A. faecalis ATCC 3750; conditions: Alcaligenes faecalis, ATCC3750, A. faecalis ATCC 3750; read-out: MIC
Protocol: as §1, §2

[16] = tested on: E. coli CSH2(RK1); conditions: Escherichia coli
Protocol: as §1, §2

[17] = tested on: E. coli NHIJ JC-2; conditions: Escherichia coli, NHIJJC2
Protocol: as §1, §2

[18] = tested on: S. epidemidis IAM 1296
Protocol: as §1, §2

[19] = tested on: E. coli CSH2(RE45); conditions: Escherichia coli
Protocol: as §1, §2

[20] = tested on: K. pneuminiae IFO 3317
Protocol: as §1, §2

[21] = tested on: S. aureus 209p JC-1; conditions: Staphylococcus aureus, 209P, read-out: MIC
Protocol: as §1, §2

[22] = tested on: S. marcescens IAM 1184; conditions: Serratia marcescens, IAM1184, S. marcescens IAM 1184; read-out: MIC
Protocol: as §1, §2

[23] = tested on: P. aeruginosa AKR17; conditions: Pseudomonas aeruginosa
Protocol: as §1, §2

[24] = tested on: P. vulugaris OX-19
Protocol: as §1, §2

[25] = tested on: P. cepacia; conditions: Burkholderia cepacia, read-out: MIC
Protocol: as §1, §2

| Compound | MIC [1] [µg/mL] | MIC [2] [µg/mL] | MIC [3] [µg/mL] | MIC [4] [µg/mL] | MIC [5] [µg/mL] | MIC [6] [µg/mL] | MIC [7] [µg/mL] | MIC [8] [µg/mL] | MIC [9] [µg/mL] | MIC [10] [µg/mL] | MIC [11] [µg/mL] | MIC [12] [µg/mL] | MIC [13] [µg/mL] | MIC [14] [µg/mL] | MIC [15] [µg/mL] | MIC [16] [µg/mL] | MIC [17] [µg/mL] | MIC [18] [µg/mL] | MIC [19] [µg/mL] | MIC [20] [µg/mL] | also measured |
| --- | --- | --- | --- | --- | --- | --- | --- | --- | --- | --- | --- | --- | --- | --- | --- | --- | --- | --- | --- | --- | --- |
| Nc1nc(-c2ccc[n+](CC3=C(C(=O)[O-])N4C(=O)[C@@H](NC(=O)/C(=N\O)c5csc(N)n5)[C@H]4SC3)c2)no1 [Ex. 14, 7β-[2-(2-aminothiazol-4-yl)-2-syn-hydroxyiminoacetamido)-3-[3-(5-amino-1,2,4-oxadiazol-3-yl)pyridinio]methyl-3-cephem-4-carboxylate] | 0.05 (≈ 0.092 µM) | 12.5 (≈ 23 µM) | 3.13 (≈ 5.76 µM) | 0.2 (≈ 0.368 µM) | 6.25 (≈ 11.5 µM) | 3.13 (≈ 5.76 µM) | 0.39 (≈ 0.718 µM) | 0.2 (≈ 0.368 µM) | 0.39 (≈ 0.718 µM) | 0.2 (≈ 0.368 µM) | 12.5 (≈ 23 µM) | 0.78 (≈ 1.44 µM) | 100 (≈ 184 µM) | > 100 | 3.13 (≈ 5.76 µM) | 0.78 (≈ 1.44 µM) | 0.39 (≈ 0.718 µM) | 0.1 (≈ 0.184 µM) | 0.39 (≈ 0.718 µM) | 0.39 (≈ 0.718 µM) | MIC [21]: 0.2 µg/mL (≈ 0.368 µM); MIC [22]: 0.78 µg/mL (≈ 1.44 µM); MIC [23]: > 100 µg/mL; MIC [24]: 0.39 µg/mL (≈ 0.718 µM); MIC [25]: > 100 µg/mL |
| Nc1nnc(-c2cc[n+](CC3=C(C(=O)[O-])N4C(=O)[C@@H](NC(=O)/C(=N\O)c5csc(N)n5)[C@H]4SC3)cc2)o1 [Ex. 15, 7β-[2-(2-aminothiazol-4-yl)-2-syn-hydroxyiminoacetamido]-3-[4-(2-amino-1,3,4-oxadiazol-5-yl)pyridinio]methyl-3-cephem-4-carboxylate] | 0.05 (≈ 0.092 µM) | 12.5 (≈ 23 µM) | 1.56 (≈ 2.87 µM) | 0.39 (≈ 0.718 µM) | 6.25 (≈ 11.5 µM) | 6.25 (≈ 11.5 µM) | 0.39 (≈ 0.718 µM) | 0.2 (≈ 0.368 µM) | 0.2 (≈ 0.368 µM) | 0.1 (≈ 0.184 µM) | 6.25 (≈ 11.5 µM) | 0.39 (≈ 0.718 µM) | 50 (≈ 92 µM) | 100 (≈ 184 µM) | 1.56 (≈ 2.87 µM) | 0.78 (≈ 1.44 µM) | 0.2 (≈ 0.368 µM) | 0.1 (≈ 0.184 µM) | 0.39 (≈ 0.718 µM) | 0.2 (≈ 0.368 µM) | MIC [21]: 0.39 µg/mL (≈ 0.718 µM); MIC [22]: 0.2 µg/mL (≈ 0.368 µM); MIC [23]: > 100 µg/mL; MIC [24]: 0.2 µg/mL (≈ 0.368 µM); MIC [25]: > 100 µg/mL |
| Nc1nc(-c2cc[n+](CC3=C(C(=O)[O-])N4C(=O)[C@@H](NC(=O)/C(=N\O)c5csc(N)n5)[C@H]4SC3)cc2)n[nH]1 [Ex. 16, 7β-[2-(2-aminothiazol-4-yl)-2-syn-hydroxyiminoacetamido]-3-[4-(3-aminotriazol-5-yl)pyridinio]methyl-3-cephem-4-carboxylate] | 0.025 (≈ 0.0461 µM) | 12.5 (≈ 23 µM) | 1.56 (≈ 2.88 µM) | 0.2 (≈ 0.369 µM) | 1.56 (≈ 2.88 µM) | 12.5 (≈ 23 µM) | 0.39 (≈ 0.719 µM) | 0.2 (≈ 0.369 µM) | 0.2 (≈ 0.369 µM) | 0.05 (≈ 0.0922 µM) | 3.13 (≈ 5.77 µM) | 0.39 (≈ 0.719 µM) | > 100 | > 100 | 1.56 (≈ 2.88 µM) | 0.78 (≈ 1.44 µM) | 0.1 (≈ 0.184 µM) | 0.1 (≈ 0.184 µM) | 0.2 (≈ 0.369 µM) | 0.1 (≈ 0.184 µM) | MIC [21]: 0.2 µg/mL (≈ 0.369 µM); MIC [22]: 0.2 µg/mL (≈ 0.369 µM); MIC [23]: > 100 µg/mL; MIC [24]: 0.1 µg/mL (≈ 0.184 µM); MIC [25]: > 100 µg/mL |
